Entries after “also recorded” stand apart in the source; their conditions may differ. Residues, ends and D or L forms follow the SMILES beside them. *: point of attachment. Myristoyl = CCCCCCCCCCCCCC(=O)*
Key:
[1] = tested on: S. aureus ATCC 25923; assay: Peritonitis model; format: in vivo, BALB/c mice; details: intraperitoneal 60 μL, 1 μg/μL, once a day for 3 days; for Liver pathogenic scores: compared with PBS group; for Liver pathogenic scores / Bacterial CFU in liver and spleen homogenate / Spleen pathogenic scores: n = 5
Procedure: The peritonitis model in vivo was generated by intraperitoneally injecting S. aureus ATCC 25923 (2.5 × 10^9 CFU/mL, 140 μL). Sixty mice were randomly divided into six groups of 10 members: those who received no infection and treatment was used as a blank control, those with […] administration of PBS (60 μL) as the negative control group, those administered with benzylpenicillin potassium (60 μL, 1 μg/μL) as the positive control group, and the remaining three groups corresponded to three antimicrobial peptide groups of Myr-36PW (60 μL, 1 μg/μL), PMAP-36PW (60 μL, 1 μg/μL), and PMAP-36 (60 μL, 1 μg/μL). After 4 h post-inoculation, treatment was initiated by intraperitoneal injection once a day for 3 days. The mice were sacrificed 24 h the treatment. Changes in the appearance of anatomical tissues were observed. The liver and spleen tissues were removed aseptically from the mice, and half of these samples were gently fixed in buffered formaldehyde solution for histopathological assessment by hematoxylin and eosin (H&E) staining. Pathological changes were scored to assess individual therapeutic status as described previously (Song et al., [2015]; Lei et al., [2018]). The remaining half of livers and spleens were added with 1 mL of PBS, homogenized, and serially diluted. Bacterial CFU counts were measured.
Figure 9 Therapeutic potency of peritonitis by Myr-36PW in vivo. The livers and spleens (n = 5) in each group were collected on day 4 after the intraperitoneal injection of S. aureus ATCC 25923. (A) Morphological changes in liver and spleen tissues. (B) Representative histopathological images of processed liver and spleen sections with hematoxylin and eosin (H&E) staining. Images are presented at a magnification of 40×. a: central venous hemorrhage. b: the cells fuse into pieces, and the nucleus dissolves and disappears. c: cytoplasmic cavitation. (C,D) Pathological scores of the liver and spleen sections. Scoring standard: 1 indicated no pathology, 2 indicated perivascular infiltrates, 3 indicated perivascular or interstitial infiltrates affecting <20% of the section, 4 indicated perivascular or interstitial infiltrates affecting 20–50% of the section, and 5 indicated perivascular or interstitial infiltrates affecting >50% of the section. (E,F) Bacterial CFU in liver and spleen homogenate. BP is benzylpenicillin potassium. Data represent the mean ± SD of five individual experiments.

[2] = tested on: L. monocytogenes CICC 21634; assay: Inhibition zone assay (disk diffusion); format: cell-based, Listeria monocytogenes; design: key: +, means the peptide has antibacterial activity; details: disk 10 μg peptide, 18 h at 37°C, * P < 0.05, ** P < 0.01 vs PMAP-36PW
Procedure: The inhibition zone assay was performed through the disk diffusion to evaluate the antimicrobial activity of Myr-36PW in vitro (Dunne et al., [2017]). The four above-mentioned bacterial strains were used as experimental strains, with L. monocytogenes CICC 21634 cultured in BHI medium, and P. aeruginosa GIM 1.551 cultured in TSB medium. The bacterial cells were cultured for 12 h at 37°C in the appropriate medium, and the bacterial cell suspension was spread on LB agar. The disks containing 10 μg of peptides (1 μg/μL) were attached to the solid medium and incubated at 37°C for 18 h. Finally the diameter of the inhibition zone was measured.

[3] = tested on: P. aeruginosa GIM 1.551; assay: Pneumonia (lung infection) model; format: in vivo, BALB/c mice; details: intranasal 40 μL, 1 μg/μL, once a day for 3 days
Procedure: A pneumonia model in vivo was established as previously reported, with minor modification (Cortés et al., [2002]; Aoki et al., [2009]; Shi et al., [2018]). A total of 120 mice were randomly divided into two experimental models, one was intranasal inoculation of S. aureus ATCC 25923 (8.3 × 10^9 CFU/mL, 50 μL), and the other was intranasal inoculation of P. aeruginosa GIM 1.551 (4.5 × 10^10 CFU/mL, 50 μL). In the S. aureus ATCC 25923 model, 60 mice were divided into the following six groups of 10 mice each: no infection and treatment was used as a blank control, those with intranasal administration of PBS (40 μL) as the negative control group, those administered with benzylpenicillin potassium (40 μL, 1 μg/μL) as the positive control group, and the remaining three corresponded to Myr-36PW (40 μL, 1 μg/μL), PMAP-36PW (40 μL, 1 μg/μL), and PMAP-36 groups (40 μL, 1 μg/μL). The procedure for P. aeruginosa GIM 1.551 model is the same as for S. aureus ATCC 25923 model, except for the use of ampicillin sodium as the positive control. After 4 h post-inoculation, treatment was initiated, once a day for 3 days. The mice were sacrificed 24 h after the treatment. Changes in the appearance of lung tissues were observed, and lung tissues were removed aseptically from the mice. Half of the removed lung tissues were gently fixed in buffered formaldehyde solution for histopathological assessment by hematoxylin and eosin (H&E) staining. Pathological changes were scored to provide individual therapeutic status as described previously (Lei et al., [2018]). The remaining lung tissues were added with 1 mL of PBS, homogenized, and serially diluted. Bacterial CFU counts were determined.
Figure 8 Therapeutic effect for pneumonia by Myr-36PW in vivo. Mice were injected with S. aureus ATCC 25923 or P. aeruginosa GIM 1.551 to form pneumonia, and lungs (n = 5) in each group were collected on day 4 after intranasal bacterial inoculation. (A) Morphological changes of lung tissues. (B) Representative histopathological images of processed lung section with hematoxylin and eosin (H&E) staining. Images are presented at a magnification of 20×. a: inflammatory cell infiltration. b: the alveolar wall is thickened. c: alveolar wall congestion or alveolar hemorrhage. (C,D) Pathological scores of the lung sections. Scoring standard: 1 indicated no pathology, 2 indicated local pulmonary congestion and inflammatory cell infiltration, 3 indicated pulmonary congestion and a large number of inflammatory cell infiltration, affecting <20% of the section, 4 indicated pulmonary congestion and a large number of inflammatory cell infiltration, affecting 20–50% of the section, and 5 indicated pulmonary congestion and a large number of inflammatory cell infiltration, affecting >50% of the section. (E,F) Bacterial CFU in lung homogenate. BP is benzylpenicillin potassium, AS is ampicillin sodium. Data represent the mean ± SD of five individual experiments.

Compound	Liver and spleen histopathology (H&E) [1]	Liver pathogenic scores [1]	Bacterial CFU in liver and spleen homogenate [1]	Spleen pathogenic scores [1]	In vitro antibacterial activity (disk diffusion) [2]	Lung histopathology (H&E) [3]	Bacterial CFU in lung homogenate ([3]; n = 5)	Pathological scores of the lung sections ([3]; n = 5)
CC1(C)S[C@@H]2[C@H](NC(=O)Cc3ccccc3)C(=O)N2[C@H]1C(=O)O [Benzylpenicillin potassium]	the liver cells of mice were neatly arranged with clear cell boundaries and no pathological changes in spleen tissues	significantly lower than PBS group (P < 0.01)	significantly decreased compared with that of PMAP-36PW group (P < 0.05)	displayed significant difference (P < 0.01); also recorded: lower than those for PMAP-36PW group (P < 0.05)	–	–	–	–
CCCCCCCCCCCCCC(=O)NCC(=O)NCC(=O)N[C@@H](CCCNC(=N)N)C(=O)N[C@@H](Cc1ccccc1)C(=O)N[C@@H](CCCNC(=N)N)C(=O)N[C@@H](CCCNC(=N)N)C(=O)N[C@@H](CC(C)C)C(=O)N[C@@H](CCCNC(=N)N)C(=O)N[C@@H](CCCCN)C(=O)N[C@@H](CCCCN)C(=O)N[C@H](C(=O)N[C@@H](CCCNC(=N)N)C(=O)N[C@@H](CCCCN)C(=O)N[C@@H](CCCNC(=N)N)C(=O)N[C@@H](CC(C)C)C(=O)N[C@@H](CCCCN)C(=O)N[C@@H](CCCCN)C(=O)N[C@H](C(=O)NCC(=O)N[C@@H](CCCCN)C(=O)N[C@H](C(=O)N[C@@H](CC(C)C)C(=O)N[C@@H](CCCCN)C(=O)N[C@@H](Cc1c[nH]c2ccccc12)C(=O)N[C@H](C(=O)N[C@@H](Cc1c[nH]c2ccccc12)C(=O)N[C@@H](Cc1c[nH]c2ccccc12)C(=O)N[C@H](C(=O)N[C@H](C(=O)NCC(=O)N[C@@H](CO)C(=O)N[C@H](C(=O)N1CCC[C@H]1C(=O)N[C@@H](CC(C)C)C(=O)NCC(=O)N[C@@H](CS)C(=O)NCC(=O)O)[C@@H](C)CC)C(C)C)[C@@H](C)CC)[C@@H](C)CC)C(C)C)[C@@H](C)CC)[C@@H](C)O [Myr-36PW] (Myristoyl-GGRFRRLRKKTRKRLKKIGKVLKWIWWIVGSIPLGCG-OH; C-terminus assumed)	the liver cells of mice were neatly arranged with clear cell boundaries and no pathological changes in spleen tissues	significantly lower than PBS group (P < 0.01)	significantly decreased compared with that of PMAP-36PW group (P < 0.05)	displayed significant difference (P < 0.01); also recorded: lower than those for PMAP-36PW group (P < 0.05)	+**	a complete alveolar structure, reduced blood stasis, and large reduction in inflammatory cells	decreased the P. aeruginosa GIM 1.551 CFU level compared with the PMAP-36PW group (P < 0.05)	lower scores than PMAP-36PW group (P < 0.05)
